# Experimental data: ChEMBL document CHEMBL3885881, “DrugMatrix”
# Species: Rattus norvegicus
# Test: DrugMatrix - Regimen: Daily Repeat
# Format: toxicity, organism-based, Sprague-Dawley
# Design: regimen Daily Repeat, gender Male, age 6-8 weeks
# Conditions: in vivo, po, route oral GAVAGE, vehicle 100 % WATER; for ABSOLUTE BASOPHIL / ABSOLUTE EOSINOPHIL / ABSOLUTE LYMPHOCYTE / ABSOLUTE MONOCYTE / ABSOLUTE SEGMENTED NEUTROPHIL / BASOPHIL / EOSINOPHIL / ERYTHROCYTE COUNT / HEMATOCRIT / HEMOGLOBIN / LEUKOCYTE COUNT / LYMPHOCYTE / MEAN CORPUSCULAR HEMOGLOBIN / MEAN CORPUSCULAR HEMOGLOBIN CONCENTRATION / MEAN CORPUSCULAR VOLUME / MONOCYTE / NEUTROPHIL / NUCLEATED RED BLOOD CELLS / PLATELET COUNT: tissue Blood; for ALANINE AMINOTRANSFERASE / ALBUMIN / ALKALINE PHOSPHATASE / ASPARTATE AMINOTRANSFERASE / BLOOD UREA NITROGEN / CARBON DIOXIDE / CHLORIDE / CHOLESTEROL / CREATINE PHOSPHOKINASE / CREATININE / GLUCOSE / LIPASE / PHOSPHORUS / POTASSIUM / SODIUM / TOTAL BILIRUBIN / TOTAL PROTEIN / URIC ACID: tissue Plasma
# [1] = 0 mg/kg, 72 h, dose level Control, time 3 day
# [2] = 0 mg/kg, 120 h, dose level Control, time 5 day
# [3] = 10 mg/kg, 72 h, dose level Low, time 3 day
# [4] = 10 mg/kg, 120 h, dose level Low, time 5 day
compound,measurement,setting,value
Fc1ccc([C@@H]2CCNC[C@H]2COc2ccc3c(c2)OCO3)cc1 [PAROXETINE],ABSOLUTE BASOPHIL,[1],0 CELLS/uL
same,ABSOLUTE EOSINOPHIL,[1],32.5 CELLS/uL
same,ABSOLUTE LYMPHOCYTE,[1],9305.83 CELLS/uL
same,ABSOLUTE MONOCYTE,[1],43.83 CELLS/uL
same,ABSOLUTE SEGMENTED NEUTROPHIL,[1],817.83 CELLS/uL
same,BASOPHIL,[1],0%
same,EOSINOPHIL,[1],0.33%
same,ERYTHROCYTE COUNT,[1],5.38 x10E6/uL
same,HEMATOCRIT,[1],33.63%
same,HEMOGLOBIN,[1],13.17 G/DL
same,LEUKOCYTE COUNT,[1],10.2 x10E3/uL
same,LYMPHOCYTE,[1],91.17%
same,MEAN CORPUSCULAR HEMOGLOBIN,[1],24.5 pg
same,MEAN CORPUSCULAR HEMOGLOBIN CONCENTRATION,[1],39.13 G/DL
same,MEAN CORPUSCULAR VOLUME,[1],62.53 fL
same,MONOCYTE,[1],0.5%
same,NEUTROPHIL,[1],8%
same,NUCLEATED RED BLOOD CELLS,[1],0.17 /100WBC
same,PLATELET COUNT,[1],858 x10E3/uL
same,ALANINE AMINOTRANSFERASE,[1],55.67 u/L
same,ALBUMIN,[1],4.07 G/DL
same,ALKALINE PHOSPHATASE,[1],337 u/L
same,ASPARTATE AMINOTRANSFERASE,[1],84 u/L
same,BLOOD UREA NITROGEN,[1],13.17 mg/dL
same,CARBON DIOXIDE,[1],34.17 mmol/L
same,CHLORIDE,[1],99.33 MEQ/L
same,CHOLESTEROL,[1],78.83 mg/dL
same,CREATINE PHOSPHOKINASE,[1],576.83 u/L
same,CREATININE,[1],0.17 mg/dL
same,GLUCOSE,[1],152.67 mg/dL
same,LIPASE,[1],9.5 u/L
same,PHOSPHORUS,[1],10.78 mg/dL
same,POTASSIUM,[1],6.34 MEQ/L
same,SODIUM,[1],144.12 MEQ/L
same,TOTAL BILIRUBIN,[1],0.18 mg/dL
same,TOTAL PROTEIN,[1],6.08 G/DL
same,URIC ACID,[1],0.65 mg/dL
same,ABSOLUTE BASOPHIL,[2],0 CELLS/uL
same,ABSOLUTE EOSINOPHIL,[2],31.17 CELLS/uL
same,ABSOLUTE LYMPHOCYTE,[2],7918.33 CELLS/uL
same,ABSOLUTE MONOCYTE,[2],58.33 CELLS/uL
same,ABSOLUTE SEGMENTED NEUTROPHIL,[2],725.5 CELLS/uL
same,BASOPHIL,[2],0%
same,EOSINOPHIL,[2],0.33%
same,ERYTHROCYTE COUNT,[2],5.32 x10E6/uL
same,HEMATOCRIT,[2],33.53%
same,HEMOGLOBIN,[2],13.17 G/DL
same,LEUKOCYTE COUNT,[2],8.73 x10E3/uL
same,LYMPHOCYTE,[2],90.33%
same,MEAN CORPUSCULAR HEMOGLOBIN,[2],24.82 pg
same,MEAN CORPUSCULAR HEMOGLOBIN CONCENTRATION,[2],39.33 G/DL
same,MEAN CORPUSCULAR VOLUME,[2],63.12 fL
same,MONOCYTE,[2],0.67%
same,NEUTROPHIL,[2],8.67%
same,NUCLEATED RED BLOOD CELLS,[2],0 /100WBC
same,PLATELET COUNT,[2],1144.83 x10E3/uL
same,ALANINE AMINOTRANSFERASE,[2],60.5 u/L
same,ALBUMIN,[2],3.97 G/DL
same,ALKALINE PHOSPHATASE,[2],343.17 u/L
same,ASPARTATE AMINOTRANSFERASE,[2],80.83 u/L
same,BLOOD UREA NITROGEN,[2],15 mg/dL
same,CARBON DIOXIDE,[2],31 mmol/L
same,CHLORIDE,[2],99.75 MEQ/L
same,CHOLESTEROL,[2],71.5 mg/dL
same,CREATINE PHOSPHOKINASE,[2],237.17 u/L
same,CREATININE,[2],0.17 mg/dL
same,GLUCOSE,[2],137 mg/dL
same,LIPASE,[2],11.5 u/L
same,PHOSPHORUS,[2],10.13 mg/dL
same,POTASSIUM,[2],6 MEQ/L
same,SODIUM,[2],145 MEQ/L
same,TOTAL BILIRUBIN,[2],0.13 mg/dL
same,TOTAL PROTEIN,[2],5.82 G/DL
same,URIC ACID,[2],0.62 mg/dL
same,ABSOLUTE BASOPHIL,[3],0 CELLS/uL
same,ABSOLUTE EOSINOPHIL,[3],33 CELLS/uL
same,ABSOLUTE LYMPHOCYTE,[3],7114.67 CELLS/uL
same,ABSOLUTE MONOCYTE,[3],0 CELLS/uL
same,ABSOLUTE SEGMENTED NEUTROPHIL,[3],519 CELLS/uL
same,BASOPHIL,[3],0%
same,EOSINOPHIL,[3],0.33%
same,ERYTHROCYTE COUNT,[3],5.11 x10E6/uL
same,HEMATOCRIT,[3],31.5%
same,HEMOGLOBIN,[3],12.33 G/DL
same,LEUKOCYTE COUNT,[3],7.67 x10E3/uL
same,LYMPHOCYTE,[3],92.67%
same,MEAN CORPUSCULAR HEMOGLOBIN,[3],24.2 pg
same,MEAN CORPUSCULAR HEMOGLOBIN CONCENTRATION,[3],39.2 G/DL
same,MEAN CORPUSCULAR VOLUME,[3],61.7 fL
same,MONOCYTE,[3],0%
same,NEUTROPHIL,[3],7%
same,NUCLEATED RED BLOOD CELLS,[3],0.33 /100WBC
same,PLATELET COUNT,[3],979 x10E3/uL
same,ALANINE AMINOTRANSFERASE,[3],52.67 u/L
same,ALBUMIN,[3],4 G/DL
same,ALKALINE PHOSPHATASE,[3],368 u/L
same,ASPARTATE AMINOTRANSFERASE,[3],88.67 u/L
same,BLOOD UREA NITROGEN,[3],16 mg/dL
same,CARBON DIOXIDE,[3],35.33 mmol/L
same,CHLORIDE,[3],100.33 MEQ/L
same,CHOLESTEROL,[3],67.33 mg/dL
same,CREATINE PHOSPHOKINASE,[3],233 u/L
same,CREATININE,[3],0.14 mg/dL
same,GLUCOSE,[3],119.33 mg/dL
same,LIPASE,[3],9.33 u/L
same,PHOSPHORUS,[3],10.97 mg/dL
same,POTASSIUM,[3],6.17 MEQ/L
same,SODIUM,[3],145.03 MEQ/L
same,TOTAL BILIRUBIN,[3],0.2 mg/dL
same,TOTAL PROTEIN,[3],5.83 G/DL
same,URIC ACID,[3],0.77 mg/dL
same,ABSOLUTE BASOPHIL,[4],0 CELLS/uL
same,ABSOLUTE EOSINOPHIL,[4],0 CELLS/uL
same,ABSOLUTE LYMPHOCYTE,[4],6074.67 CELLS/uL
same,ABSOLUTE MONOCYTE,[4],188.33 CELLS/uL
same,ABSOLUTE SEGMENTED NEUTROPHIL,[4],703.67 CELLS/uL
same,BASOPHIL,[4],0%
same,EOSINOPHIL,[4],0%
same,ERYTHROCYTE COUNT,[4],5.7 x10E6/uL
same,HEMATOCRIT,[4],34.77%
same,HEMOGLOBIN,[4],13.23 G/DL
same,LEUKOCYTE COUNT,[4],6.97 x10E3/uL
same,LYMPHOCYTE,[4],86.67%
same,MEAN CORPUSCULAR HEMOGLOBIN,[4],23.2 pg
same,MEAN CORPUSCULAR HEMOGLOBIN CONCENTRATION,[4],38.07 G/DL
same,MEAN CORPUSCULAR VOLUME,[4],61 fL
same,MONOCYTE,[4],2.33%
same,NEUTROPHIL,[4],11%
same,NUCLEATED RED BLOOD CELLS,[4],0 /100WBC
same,PLATELET COUNT,[4],1176.67 x10E3/uL
same,ALANINE AMINOTRANSFERASE,[4],56.33 u/L
same,ALBUMIN,[4],4.17 G/DL
same,ALKALINE PHOSPHATASE,[4],432.67 u/L
same,ASPARTATE AMINOTRANSFERASE,[4],87.67 u/L
same,BLOOD UREA NITROGEN,[4],17 mg/dL
same,CARBON DIOXIDE,[4],31.67 mmol/L
same,CHLORIDE,[4],99.67 MEQ/L
same,CHOLESTEROL,[4],81 mg/dL
same,CREATINE PHOSPHOKINASE,[4],254 u/L
same,CREATININE,[4],0.19 mg/dL
same,GLUCOSE,[4],152.67 mg/dL
same,LIPASE,[4],9.67 u/L
same,PHOSPHORUS,[4],10.57 mg/dL
same,POTASSIUM,[4],6.09 MEQ/L
same,SODIUM,[4],145.13 MEQ/L
same,TOTAL BILIRUBIN,[4],0.2 mg/dL
same,TOTAL PROTEIN,[4],6.03 G/DL
same,URIC ACID,[4],0.77 mg/dL
